Assay [1] concerns RAW264.7. Kind of assay: Cytotoxicity against mouse RAW264.7 cells assessed as cell viability by MTT assay. It is filed as functional, cell-based. (Tetrazolium assays rely on reduction of a dye to a coloured formazan, in cell work by metabolically active cells.)
Assay [2] deals with RAW264.7. In words: Antiinflammatory activity against LPS-stimulated mouse RAW264.7 cells assessed as suppression of NO secretion at 20 uM preincubated with compound for 2 hrs followed by LPS stimulation and measured after 24 hrs by Griess reagent based assay relative to control. It is filed as functional. As to conditions: time 26 hrs. Background: Nitrite, measured by Griess reagent, commonly stands in for NO production.

Assay [3] relates to A549. In words: Anticancer activity against human A549 cells assessed as inhibition of cell growth incubated for 48 hrs by MTT assay. As to conditions: A549, 48 h. It is filed as functional, cell-based.
Assay [4] deals with NCI-H1975. In words: Anticancer activity against human NCI-H1975 cells assessed as inhibition of cell growth incubated for 48 hrs by MTT assay. It is filed as functional, cell-based. To be noted: NCI-H1975, 48 h.
Assay [5] relates to MCF7. Kind of assay: Anticancer activity against human MCF7 cells assessed as inhibition of cell growth incubated for 48 hrs by MTT assay. It is filed as functional, cell-based. To be noted: MCF7, 48 h.
The subject of assay [6] is MDA-MB-231. Kind of assay: Anticancer activity against human MDA-MB-231 cells assessed as inhibition of cell growth incubated for 48 hrs by MTT assay. It is filed as functional, cell-based. To be noted: MDA-MB-231, 48 h.
Assay [7] concerns RAW264.7. In words: Antiinflammatory activity against LPS-stimulated mouse RAW264.7 cells assessed as inhibition of NO production preincubated with compound for 2 hrs followed by LPS stimulation and measured after 24 hrs by Griess reagent based analysis. It is filed as functional, cell-based. As to conditions: dose 10-40 µM, time 26.0 hrs.
In assay [8] the test system is RAW264.7. Kind of assay: Antiinflammatory activity against LPS-stimulated mouse RAW264.7 cells assessed as downregulation of LPS-induced iNOS expression preincubated with compound for 2 hrs followed by LPS stimulation and measured after 24 hrs by Western blot analysis. It is filed as functional, cell-based. As to conditions: dose 10-40 µM, time 26.0 hrs. In general terms: In western blotting, separated proteins are transferred to a membrane and probed.

Activity calls are given as the source filed them. No cut-off for these calls is given here.

For the compound `C[C@@H]1CC[C@]2(C(=O)O)CC[C@]3(C)C(=CCC4[C@@]5(C)C[C@@H](O)[C@H](OC(=O)/C=C/c6ccc(O)cc6)C(C)(C)[C@@H]5CC[C@]43C)C2[C@H]1C` (stereo partly specified), in assay [1], the outcome was inactive.
Turning to `CC(C)c1cc2c(cc1O)[C@@]1(C)CC[C@H](O)[C@](C)(C=O)[C@@H]1CC2`, in assay [1], the result was inactive. The Activity in assay [2] came to 95%.
Consider `C=C1C(=O)O[C@H]2C3=CC[C@@H]4C(C)(C)C(=O)CC[C@@]4(C)[C@@H]3CC[C@@H]12`, for which, in assay [1], the outcome was inactive. The IC50 was over 10 µM in assay [3], over 10 µM in assay [4], over 10 µM in assay [5] and 7.3 µM in assay [6].
Consider `COc1cc(/C=C/C(=O)O[C@H]2[C@H](O)C[C@]3(C)C4CC=C5C6CC(C)(C)CC[C@]6(C(=O)O)CC[C@@]5(C)[C@]4(C)CC[C@H]3C2(C)C)ccc1O` (stereo partly specified), for which the result in assay [1] was inactive.
On to `C=C1C(=O)[C@]23C[C@H]1CC[C@H]2[C@]1(C)CC[C@@H](O)C(C)(C)[C@H]1C[C@@H]3OC(C)=O`, for which the result in assay [1] was inactive. The IC50 in assay [3] was determined as 4.7 µM; in assay [4], 6.3 µM; in assay [5], 7.4 µM; in assay [6], 6.6 µM.
With `CC(=O)[C@@H](C)CC[C@@]1(C(=O)O)C=C2C=CC3[C@@]4(C)C(C(=O)O)=CC(C)(C)[C@@H]4CC[C@@]3(C)[C@]2(C)CC1` (stereo partly specified), in assay [1], the outcome was inactive.
On the same count and under the same terms, next, `C=C1[C@@H]2CC[C@H]3[C@]4(C)CC[C@@H](O)C(C)(C)[C@H]4C[C@H](OC(C)=O)[C@]3(C2)[C@@H]1O`: “inactive”.
With `C[C@@H]1CC[C@]2(C(=O)O)CC[C@]3(C)C(=CC[C@@H]4[C@@]5(C)C(CO)=CC(C)(C)[C@@H]5CC[C@]43C)[C@@H]2[C@]1(C)O` [HYPTASIENIC ACID], in assay [1], the outcome was inactive. In addition, the IC50 in assay [3] is 7.4 µM; in assay [4], over 10 µM; in assay [5], over 10 µM; in assay [6], over 10 µM.
Take `CC(C)c1cc2c(cc1O)[C@@]1(C)CC[C@H](O)C(C)(C)[C@@H]1CC2`: the result in assay [1] was inactive.
For the compound `CC(C)c1cc2c(cc1O)[C@@]1(C)CCC[C@](C)(CO)[C@@H]1C=C2`, in assay [1], the outcome was inactive.
Turning to `CC(C)c1cc2c(cc1O)CC[C@H]1C(C)(C)[C@@H](O)CC[C@]21C`, the result in assay [1] was inactive. Also, the inhibition result in assay [7] was “Dose-Dependent Effect”. For the same compound, the Activity was 91% in assay [2] and “Dose-Dependent Effect” in assay [8].
For the compound `CC(C)c1cc2c(cc1O)C(=O)C[C@H]1[C@@](C)(CO)CCC[C@]21C`, the outcome in assay [1] was inactive. Further, in assay [7], the inhibition result is “Dose-Dependent Effect”.
On to `CC1(C)CC[C@]2(C(=O)O)CC[C@]3(C)C(=CCC4[C@@]5(C)C[C@@H](O)[C@H](OC(=O)/C=C/c6ccc(O)cc6)C(C)(C)[C@@H]5CC[C@]43C)C2C1` (stereo partly specified), for which, in assay [1], the result was inactive.
On to `CC1(C)CC[C@]2(C(=O)O)CC[C@]3(C)C(=CC[C@@H]4[C@@]5(C)C[C@@H](O)[C@H](O)C(C)(C)[C@@H]5CC[C@]43C)[C@@H]2C1`, for which the outcome in assay [1] was inactive.
For `CC(C)c1cc2c(cc1O)CC[C@H]1[C@](C)(CO)CCC[C@]21C`, the outcome in assay [1] was inactive. The inhibition entry in assay [7] was “Dose-Dependent Effect”. In addition, the Activity entry in assay [8] is “Dose-Dependent Effect”.
Take `CC(C)c1c(O)ccc2c1CC[C@H]1C(C)(C)C(=O)CC[C@]21C`: the outcome in assay [1] was inactive. For the same compound, the inhibition result in assay [7] was “Dose-Dependent Effect”.
For `CC(C)c1c(O)ccc2c1CC[C@H]1[C@@](C)(C(=O)O)CCC[C@]21C`, in that order: “inactive” and “Dose-Dependent Effect”.
On to `C=C1[C@@H]2CC[C@H]3[C@]4(C)CC[C@@H](O)C(C)(C)[C@H]4C[C@@H](O)[C@]3(C2)[C@@H]1O`, for which the result in assay [1] was inactive.
For the compound `CC(C)c1cc2c(cc1O)C(=O)C[C@H]1C(C)(C)CCC[C@]21C`, the result in assay [1] was inactive. Besides, the inhibition result in assay [7] is “Dose-Dependent Effect”. The values for the Activity in assay [2] and in assay [8] were 86% and “Dose-Dependent Effect”, respectively.
As for `CC1(C)CC[C@]2(C(=O)O)CC[C@]3(C)C(=C2C1)C=CC1[C@@]2(C)C[C@@H](O)[C@H](O)C(C)(C)[C@@H]2CC[C@]13C` (stereo partly specified), in assay [1], the outcome was inactive.
With `CC(C)C(=O)OC1=C[C@@]2(CO)C(CC[C@]3(C)C2CC=C2C4[C@](C(=O)O)(CC[C@@H](C)[C@@]4(C)O)CC[C@]23C)C(C)(C)C1` (stereo partly specified), the outcome in assay [1] was inactive.
On the same count and under the same terms, next, `C=C1CC[C@@H]2C(C)(C)[C@H](O)CC[C@@]2(C)C1CCC1=CCOC1=O` (stereo partly specified): “inactive”; `C=C1CC[C@@H]2[C@](C)(C(=O)O)CCC[C@@]2(C)C1CCC1=CCOC1=O` (stereo partly specified): “inactive”; `CC1(C)CC[C@]2(C(=O)O)CC[C@]3(C)C(=C2C1)CCC1[C@@]2(C)C[C@@H](O)[C@H](O)C(C)(C)[C@@H]2CC[C@]13C` (stereo partly specified): “inactive”.
The same measure, in the same setting: to `C[C@@H]1CC[C@]2(C(=O)O)CC[C@]3(C)C(=CCC4[C@@]5(C)C[C@@H](O)OCC(C)(C)C5CC[C@]43C)C2[C@]1(C)O` (stereo partly specified) belongs “inactive”; to `C=C1[C@@H]2CC[C@H]3[C@]4(C)CCC[C@](C)(CO)[C@H]4C[C@H](O)[C@]3(C2)[C@@H]1O`, “inactive”.
The same measure, in the same setting: to `C=C1CC[C@@H]2[C@](C)(CO)CCC[C@@]2(C)C1CCC1=CCOC1=O` (stereo partly specified) belongs “inactive”; to `COc1cc2c(cc1C(C)C)CC[C@H]1[C@@](C)(C(=O)O)CCC[C@]21C`, “inactive”.
For the compound `CC(C)[C@H]1CC[C@H]2[C@@H](CC[C@H]3C(C)(C)CCC[C@]23C)C1`, the inhibition result in assay [7] was “Active”.
On the same count and under the same terms, next, `CC(C)c1cc2c(cc1O)[C@@]1(C)CCC[C@](C)(CO)[C@@H]1CC2`: “Dose-Dependent Effect”.
`CC1(C)CC[C@]2(C(=O)O)CC[C@]3(C)C(=CCC4[C@@]5(C)C[C@@H](O)[C@@H](O)C(C)(C)[C@@H]5CC[C@]43C)C2C1` (stereo partly specified): the result in assay [1] was inactive.
Still for that read-out and setting: to `CC(C)c1cc2c(cc1O)[C@@]1(C)CCCC(C)(C)[C@@H]1CC2=O` belongs “inactive”.
For `CC(C)c1ccc2c(c1O)CC[C@@H]1[C@@](C)(CO)CCC[C@@]21C`, in assay [1], the result was inactive. Besides, the inhibition entry in assay [7] was “Dose-Dependent Effect”. Besides, the Activity in assay [2] is 94%; in assay [8], “Dose-Dependent Effect”.
On to `C=C1C(=O)[C@@]23CC[C@@H]4C(C)(C)C(=O)CC[C@@]4(C)[C@@H]2CC[C@@H]1C3`, for which the result in assay [1] was inactive. The IC50 in assay [3] is over 10 µM; in assay [4], over 10 µM; in assay [5] it was over 10 µM; in assay [6] it was 8.4 µM.
As to `CC(C)c1c(O)ccc2c1CC[C@H]1C(C)(C)[C@@H](O)CC[C@]21C`, the outcome in assay [1] was inactive.
For the compound `CC(=O)O[C@H]1C(=O)[C@@]2(C)[C@H]([C@H](OC(=O)c3ccccc3)[C@]3(O)C[C@H](OC(=O)[C@H](O)[C@@H](NC(=O)c4ccccc4)c4ccccc4)C(C)=C1C3(C)C)[C@]1(OC(C)=O)CO[C@@H]1C[C@@H]2O` [PACLITAXEL], the IC50 amounted to 0.018 µM in assay [3], 0.028 µM in assay [4] and 0.03 µM in assay [6].
For the compound `CC(C)[C@@]1(O)CCC2=C(C1)C(=O)C[C@H]1C(C)(C)CC[C@H](O)[C@]21C`, the outcome in assay [1] was inactive. In addition, the inhibition entry in assay [7] is “Dose-Dependent Effect”.

Usually IC50 stands for the midpoint of a concentration-inhibition curve.

The values above are taken from ChEMBL document CHEMBL5316368, “Di- and Triterpenoids from the Rhizomes of Isodon amethystoides and Their Anti-inflammatory Activities” (J Nat Prod, 2023).
